Laboratory results published in publication PMC3770654, “Gastric Antimicrobial Peptides Fail to Eradicate Helicobacter pylori Infection Due to Selective Induction and Resistance” (PLoS ONE, 2013).
Where two headings read alike, the source gives them in different places. No end group written: not given here.

Key:
H. pylori [1] = details: cited from earlier work; for growth inhibition: ref 19 Kawauchi et al.
Description: Previously, Hase et al. had tested two H. pylori strains against the antimicrobials HBD1, HBD2 and LL37 and […], one strain tested was resistant to HBD1, while the second strain was sensitive. […] In the study by Hase et al. […] Th ...

[2] = system: H. pylori KaE1, DSM 9691, DSM 10242 and DSM 21031; experiment: Radial diffusion assay, four H. pylori strains; format: cell-based; details: 20 µg peptide per well, 3 days, 37 °C; for zones of inhibition in radial diffusion assay: all four Helicobacter strains, microaerophilic
Procedure: (§1) Additionally to determine inhibition of bacterial growth we performed radial diffusion assays with a modified protocol of the procedure from Robert Lehrer et al.. Briefly, H. pylori was grown on Columbia blood agar (BD, Sparks, USA), suspended in Brain Heart Infusion diluted 1:5 with aqua dest. and plated on an agar containing 20% brain heart infusion with 5% fetal calf serum. Wells with 3 mm diameter were punched into the agar and peptides were applied equivalent to the flow cytometric assay in a concentration of 20 µg per well. The agar plates were incubated for 3 days at 37 °C in a microaerophilic atmosphere with CampyGen.

H. pylori DSM 21031 [3] = experiment: Plating on Columbia blood agar with CFU counting; format: cell-based; details: peptide 20 µg/ml, means of two independent experiments, control 7.45 x 10^5
Procedure: (§2) H. pylori strains were cultured on Columbia blood agar at 37 C° for 2 days in a microaerophilic atmosphere with CampyGen (Oxoid, Hampshire, UK). Subsequently the bacteria were suspended in Schaedler Broth (BD, Sparks, USA) diluted 1:6 with aqua dest. for incubation with antimicrobial peptides.
(§3) Bacterial viability after incubation with antimicrobial peptides or biopsy extracts was analyzed with the membrane potential sensitive dye DiBAC4(3) (bis-(1,3-dibutylbarbituric acid) trimethine oxonol) (Invitrogen, Carlsbad, CA, USA) as described previously. Briefly, 1.5x10^6 mid-logarithmic-phase bacteria/ml of H. pylori or E. coli in Schaedler Broth 1:6 were incubated with 20 µg/ml HBD1-4 (Peptide Institute, Osaka, Japan), elafin (Proteo Biotech, Kiel, Germany for FACS analysis and RDA and elafin from Peptide Institute, Osaka for CFU determination), with LL37 (Innovagen, Lund, Sweden) or with 10 µg total protein of antrum biopsy extracts at 37°C. After 90 minutes 1 µg/ml DiBAC4(3) was added to the suspensions and further incubated for 10 minutes. Then, the suspensions were centrifuged with 4500 x g for 10 minutes, pellets resuspended in 300 µl PBS and bacterial fluorescence was analyzed by a FACSCalibur^TM (BD, Sparks, USA), using Cell Quest software (BD, Sparks, USA). In each sample 10000 bacterial events were analyzed for green fluorescence and the antimicrobial activity was determined as percentage of depolarized, fluorescent bacteria. Inhibition of bacterial growth was tested by plating aliquots on Columbia blood agar and incubating at 37 C° for 2 days in a microaerophilic atmosphere with CampyGen (Oxoid, Hampshire, UK). Then colony forming units (CFU) were counted.

H. pylori DMS 9691 = experiment: Plating on Columbia blood agar with CFU counting; format: cell-based; details: peptide 20 µg/ml, means of two independent experiments, control 8.85 x 10^5
Procedure: as §2, §3

H. pylori KaE = experiment: Plating on Columbia blood agar with CFU counting; format: cell-based; details: peptide 20 µg/ml, means of two independent experiments, control 1.42 x 10^6
Procedure: as §2, §3

H. pylori DSM 10242 [4] = experiment: Plating on Columbia blood agar with CFU counting; format: cell-based; details: peptide 20 µg/ml, means of two independent experiments, control 6.10 x 10^5
Procedure: as §2, §3

E. coli ATCC 25922 [5] = experiment: Flow cytometric viability assay with membrane potential sensitive dye DiBAC4(3); format: cell-based; details: 20 µg/ml peptide, 1.5x10^6 bacteria/ml in Schaedler Broth 1:6, 37°C, 90 minutes, then DiBAC4(3) 10 minutes, 10000 events
Procedure: (§4) The clinical isolate H. pylori KaE1 and the reference strains H. pylori DSM 9691, DSM 10242 and DSM 21031 were tested for susceptibility towards defensins, LL37 and elafin (amino acid sequences Table S1). The strain H. pylori DSM 10242 is positive for the virulence factors VacA and CagA. As control strain for antimicrobial activity served the sensitive E. coli ATCC 25922.
as §3

[6] = system: H. pylori KaE1, DSM 9691, DSM 10242 and DSM 21031; experiment: Flow cytometric viability assay with DiBAC4(3), four H. pylori strains; format: cell-based; details: all 4 H. pylori strains; 20 µg/ml peptide, Schaedler Broth 1:6, 37°C, 90 minutes, DiBAC4(3)
Procedure: as §4, §2, §3

H. pylori DSM 10242 [7] = experiment: Flow cytometric viability assay with DiBAC4(3); format: cell-based; details: 20 µg/ml peptide, 37°C, 90 minutes
Procedure: as §4, §2
(§5) Bacterial viability after incubation with antimicrobial peptides or biopsy extracts was analyzed with the membrane potential sensitive dye DiBAC4(3) (bis-(1,3-dibutylbarbituric acid) trimethine oxonol) (Invitrogen, Carlsbad, CA, USA) as described previously. […] Then, the suspensions were centrifuged with 4500 x g for 10 minutes, pellets resuspended in 300 µl PBS and bacterial fluorescence was analyzed by a FACSCalibur^TM (BD, Sparks, USA), using Cell Quest software (BD, Sparks, USA). In each sample 10000 bacterial events were analyzed for green fluorescence and the antimicrobial activity was determined as percentage of depolarized, fluorescent bacteria. […] Then colony forming units (CFU) were counted.

H. pylori KaE1 [8] = experiment: Flow cytometric viability assay with DiBAC4(3); format: cell-based; details: 20 µg/ml peptide, 37°C, 90 minutes
Procedure: as §4, §2, §5

H. pylori [9] = experiment: Binding of antimicrobial peptides to bacterial cells (flow cytometry, Streptavidin-PE); details: 20 µg/ml biotinylated LL37 or 20 µg/ml HBD2 with biotinylated HBD2-antibody, 30 minutes
Procedure: (§6) To investigate whether HBD2 and LL37 bind to the bacterial cell membrane, we incubated E. coli or H. pylori in Schaedler Broth 1:6 with 20 µg/ml biotinylated LL37 (Innovagen, Lund, Sweden) or 20 µg/ml HBD2 (Peptide Institute, Osaka, Japan) for 30 minutes. After centrifugation a biotinylated HBD2-antibody was added to the in PBS resuspended pellet of the HBD2 samples (Peprotech, Hamburg, Germany). Following washing with PBS, binding of biotinylated LL37 or of the HBD2-antibody was detected with Streptavidin-PE (BD Biosciences, Heidelberg, Germany). Suspensions incubated with HBD2 antibody and Streptavidin served as control. Fluorescence 2 of 10 000 events was measured with the FACSCalibur.

E. coli ATCC 25922 [10] = experiment: as above; details: 20 µg/ml biotinylated LL37 or 20 µg/ml HBD2 with biotinylated HBD2-antibody, 30 minutes
Procedure: as §6

H. pylori DSM 21031 [11] = experiment: Radial diffusion assay; format: cell-based; details: 20 µg peptide per well, 3 days, 37 °C
Procedure: as §1

H. pylori KaE1 [12] = experiment: Radial diffusion assay; format: cell-based; details: 20 µg peptide per well, 3 days, 37 °C
Procedure: as §1

H. pylori KaE1 [13] = experiment: Transmission electron microscopy of peptide-treated bacteria; format: cell-based; details: H. pylori KaE1, 1.5x10^8 bacteria, 200 µg peptide/ml, 2 hours
Procedure: For electron microscopy 1.5x10^8 bacteria were incubated with 200 µg peptide/ml for 2 hours. Subsequently bacteria were fixed with Karnovsky solution, embedded in agarose, coagulated, cut in blocks and fixed once more in Karnovsky. After post fixation and embedding in glycid ether the specimen were cut with an ultra microtome. Sections of 30 nm were rinsed on copper grids and investigated with a Zeiss LIBRA 120 transmission electron microscope.

Row | Substance | zones of inhibition in radial diffusion assay [2] | Colony forming units (H. pylori DSM 21031 [3]) | Colony forming units (H. pylori DMS 9691) | Colony forming units (H. pylori KaE) | Colony forming units (H. pylori DSM 10242 [4]) | depolarized bacteria (E. coli ATCC 25922 [5]) | depolarized bacteria [6] | binding to the bacterial surface (H. pylori [9]) | binding to the bacterial surface (E. coli ATCC 25922 [10]) | disintegration of bacterial cells (electron microscopy) (H. pylori KaE1 [13]) | also measured
1 | Asp - His - Tyr - Asn - Cys - Val - Ser - Ser - Gly - Gly - Gln - Cys - Leu - Tyr - Ser - Ala - Cys - Pro - Ile - Phe - Thr - Lys - Ile - Gln - Gly - Thr - Cys - Tyr - Arg - Gly - Lys - Ala - Lys - Cys - Cys - Lys (disulfide) [HBD1, recombinant constitutive defensin HBD1 (gene name DEFB1), Peptide Institute, Osaka] | no zones of inhibition | 7.15 x 10^5 CFU/ml | 8.61 x 10^5 CFU/ml | 1.32 x 10^6 CFU/ml | 6.85 x 10^5 CFU/ml | 37% | less than 5% |  |  |  | eradication (CFU) (H. pylori [1]; 10^-5 M recombinant HBD1 in hypotonic buffer, ref 21 George et al.): absolute eradication; reduction of CFU (H. pylori [1]; 10^-7 M recombinant HBD1 in hypotonic buffer, ref 21 George et al.): about 50%
2 | ELDRICGYGTARCRKKCRSQEYRIGRCPNTYACCLRK (disulfide (positions not given here)) [HBD4, recombinant defensin HBD4 (DEFB104A), Peptide Institute, Osaka] | no zones of inhibition | 6.90 x 10^5 CFU/ml | 8.25 x 10^5 CFU/ml | 1.26 x 10^6 CFU/ml | 4.95 x 10^5 CFU/ml | 43% |  |  |  |  | depolarization level (H. pylori DSM 10242 [7]): 12%; depolarization level (H. pylori KaE1 [8]): 8%
3 | Gly - Ile - Gly - Asp - Pro - Val - Thr - Cys - Leu - Lys - Ser - Gly - Ala - Ile - Cys - His - Pro - Val - Phe - Cys - Pro - Arg - Arg - Tyr - Lys - Gln - Ile - Gly - Thr - Cys - Gly - Leu - Pro - Gly - Thr - Lys - Cys - Cys - Lys - Lys - Pro (disulfide) [HBD2, human beta defensin 2, recombinant inducible defensin HBD2 (DEFB4A), Peptide Institute, Osaka] |  | 6.07 x 10^5 CFU/ml | 7.90 x 10^5 CFU/ml | 0.89 x 10^6 CFU/ml | 5.92 x 10^5 CFU/ml | 51% | less than 5% | accumulated on the surface | accumulated on the surface | much less disintegration | growth inhibition (H. pylori [1]; 30 µg/ml HBD2): 70%; growth inhibition (H. pylori [1]; 50 µg/ml HBD2): complete inhibition; effect on bacterial viability (H. pylori [1]; ref 20 Hase et al.): no effect on bacterial viability; growth in radial diffusion assay ([2]; the two other strains (not KaE1, not DSM 21031)): not influenced; zones of inhibition in radial diffusion assay (H. pylori DSM 21031 [11]): small inhibition zones; zones of inhibition in radial diffusion assay (H. pylori KaE1 [12]): small inhibition zones
4 | Gly - Ile - Ile - Asn - Thr - Leu - Gln - Lys - Tyr - Tyr - Cys - Arg - Val - Arg - Gly - Gly - Arg - Cys - Ala - Val - Leu - Ser - Cys - Leu - Pro - Lys - Glu - Glu - Gln - Ile - Gly - Lys - Cys - Ser - Thr - Arg - Gly - Arg - Lys - Cys - Cys - Arg - Arg - Lys - Lys (disulfide) [HBD3, recombinant inducible defensin HBD3 (DEFB103A), Peptide Institute, Osaka] | pronounced zones | 1.55 x 10^5 CFU/ml | 0.20 x 10^5 CFU/ml | 0.08 x 10^6 CFU/ml | 1.14 x 10^5 CFU/ml | 90% | 34-78% |  |  | more pronounced disintegration | effectiveness against H. pylori among defensins (H. pylori [1]; ref 21 George et al.): most effective against H. pylori
5 | Leu - Leu - Gly - Asp - Phe - Phe - Arg - Lys - Ser - Lys - Glu - Lys - Ile - Gly - Lys - Glu - Phe - Lys - Arg - Ile - Val - Gln - Arg - Ile - Lys - Asp - Phe - Leu - Arg - Asn - Leu - Val - Pro - Arg - Thr - Glu - Ser [LL37, amphipathic α-helical cathelicidin LL37 (CAMP), Innovagen, Lund] | pronounced zones | 0.41 x 10^5 CFU/ml | 0.35 x 10^5 CFU/ml | 0.09 x 10^6 CFU/ml | 0.15 x 10^5 CFU/ml | 87% | 62-85% | accumulated on the surface | accumulated on the surface |  | 
